“Also recorded” adds a separate entry of the source.
Legend:
[1] = test system: triple-negative breast cancer (TNBC) cell lines; test: Live cell ATP sensor imaging after compound treatment, TNBC cell lines; assay type: cell-based
Description: (§1) Cancer cell lines stably expressing a genetically encoded, fluorescent ATP sensor or a control (non-ATP binding) sensor were generated. Cell lines were cultured in recommended media conditions except for studies evaluating the effects of the glutaminase-1 (GLS1) inhibitor CB-839, for which cells were adapted to RPMI supplemented with 10% FBS prior to experimentation. […] Cellular ATP levels were measured over the course of hours to days following compound treatment.
(§2) A live cell imaging approach was then utilized to evaluate the effect of cancer therapeutics on ATP levels in tumor cell lines, focusing primarily on compounds that target metabolic vulnerabilities. […] Quantification of phase confluence confirmed that sustained decreases in ATP were associated with enhanced antiproliferative efficacy compared to conditions under which recovery of ATP levels were observed.

[2] = test system: receptor-positive breast cancer lines; test: Live cell ATP sensor imaging after compound treatment, receptor-positive breast cancer lines; assay type: cell-based
Description: as §1, §2

Compound: O=C(Cc1cccc(OC(F)(F)F)c1)Nc1ccc(CCCCc2nnc(NC(=O)Cc3ccccn3)s2)nn1 [CB-839]
- effect on ATP levels in co-culture ([1]; TNBC cultured on a monolayer of CCD-1068Sk fibroblasts): diminished effects on ATP levels; also recorded: attenuated by co-culture with CCD-1068Sk fibroblasts
- effect on ATP levels ([1]; TNBC, mono-culture, three-day time course): rapid drop in ATP; also recorded: remained below that of vehicle-treated cells for the duration of the three-day time course; also recorded: prolonged ATP depletion
- effect on ATP levels ([2]; receptor-positive cell lines, mono-culture): no change to more modest decreases in ATP
- time to recovery of ATP levels ([2]; receptor-positive cells): ≤ 48 h
- effect of co-culture on the ATP response ([2]; receptor-positive lines with CCD-1068Sk fibroblasts): unaffected by the presence of CCD-1068Sk fibroblasts

From patent US12158470B2, “Methods and compositions for live cell analysis of intracellular ATP” (Sartorius BioAnalytical Instruments, Inc., priority 2018, dated 2024)
